Reference: the supplement of paper PMC10307832

Key:
Experiment in all cases: relative viability (nuclei count vs DMSO), 5 days (fraction); higher = more cells survive
BI-D1870 = compound: CC(C)CCN1c2nc(Nc3cc(F)c(O)c(F)c3)ncc2N(C)C(=O)C1C [BI-D1870]
Outline: (§1)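 Five library-drug doses, separated by factors of √10, were pinned into 1536-well plates holding lung cancer cell lines after an overnight stay at 37 °C. Cells were fixed, permeabilised and Hoechst-stained in one step after 5 days without medium change, then imaged at 4×. Viability compares treated-well with vehicle-well nuclei, counted in MetaXpress, as a median across plates. Passing plates had control CV below 25% and at least one doubling.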

Zebularine = compound: O=c1ncccn1[C@@H]1O[C@H](CO)[C@@H](O)[C@H]1O [Zebularine]
Outline: as §1

BI-D1870 + Alpelisib = compound: CC(C)CCN1c2nc(Nc3cc(F)c(O)c(F)c3)ncc2N(C)C(=O)C1C [BI-D1870] + Cc1nc(NC(=O)N2CCC[C@H]2C(N)=O)sc1-c1ccnc(C(C)(C)C(F)(F)F)c1 [Alpelisib] (partner 2 µM)
Outline: (§2)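 Lung cancer cell lines were pin-tool dosed in 1536-well plates on the day after seeding, with either a lone drug or a fixed anchor-drug dose plus five library-drug doses (not always all listed) in √10 steps. Nuclei were counted on 4× images after 5 days. Relative viability is the ratio of treated-well to vehicle-well nuclei counts, with each value a median of duplicate plates.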

Zebularine + Bortezomib = compound: O=c1ncccn1[C@@H]1O[C@H](CO)[C@@H](O)[C@H]1O [Zebularine] + CC(C)C[C@H](NC(=O)[C@H](Cc1ccccc1)NC(=O)c1cnccn1)B(O)O [Bortezomib] (partner 0.002 µM)
Outline: as §2

Cell Line | relative viability (BI-D1870; 0.04 µM) | relative viability (BI-D1870; 0.1265 µM) | relative viability (BI-D1870; 0.4 µM) | relative viability (BI-D1870; 1.265 µM) | relative viability (BI-D1870; 4 µM) | relative viability (Zebularine; 1 µM) | relative viability (Zebularine; 3.162 µM) | relative viability (Zebularine; 10 µM) | relative viability (Zebularine; 31.62 µM) | relative viability (Zebularine; 100 µM) | relative viability (BI-D1870 + Alpelisib; first compound 0.04 µM) | relative viability (BI-D1870 + Alpelisib; first compound 0.1265 µM) | relative viability (BI-D1870 + Alpelisib; first compound 0.4 µM) | relative viability (BI-D1870 + Alpelisib; first compound 1.265 µM) | relative viability (BI-D1870 + Alpelisib; first compound 4 µM) | relative viability (Zebularine + Bortezomib; first compound 1 µM) | relative viability (Zebularine + Bortezomib; first compound 3.162 µM) | relative viability (Zebularine + Bortezomib; first compound 10 µM) | relative viability (Zebularine + Bortezomib; first compound 31.62 µM) | relative viability (Zebularine + Bortezomib; first compound 100 µM)
EMC-BAC-2 | 1.1 | 1.01 | 0.891 | 1.01 | 0.904 | 1.07 | 0.994 | 0.775 | 0.981 | 1.06 | 0.815 | 0.649 | 0.723 | 0.765 | 0.69 | 1.1 | 1.09 | 0.732 | 1.09 | 1.11
NCI-H1993 | 1.03 | 0.876 | 0.827 | 1.15 | 0.702 | 1.18 | 0.945 | 0.736 | 0.963 | 0.774 | 0.619 | 0.677 | 0.643 | 0.708 | 0.811 | 1.26 | 1.1 |  | 1.14 | 0.778
NCI-H520 | 0.963 | 0.79 | 1.11 | 0.927 | 0.851 | 1.11 | 0.957 | 0.52 | 0.388 | 0.26 | 0.903 | 0.76 | 0.85 | 0.953 | 0.764 | 0.831 | 0.449 | 0.337 | 0.231 | 0.224
NCI-H647 | 1.07 | 0.918 | 1.05 | 1.04 | 0.889 | 1.01 | 0.943 | 0.294 | 0.203 | 0.157 | 1.1 | 0.985 | 1.16 | 1.07 | 0.896 | 1.27 | 0.749 | 0.181 | 0.175 | 0.204
NCI-H1792 | 1 | 0.981 | 0.828 | 1.15 | 0.613 | 1.1 | 0.925 | 0.431 | 0.449 | 0.277 | 0.724 | 0.677 | 0.641 | 0.736 | 0.538 | 0.989 | 0.932 | 0.369 | 0.382 | 0.359
SK-LU-1 | 1.07 | 0.91 | 0.972 | 0.997 | 0.669 | 1.07 | 0.989 | 0.626 | 0.739 | 0.544 | 1.04 | 0.879 | 0.807 | 0.653 | 0.237 | 1.3 | 0.913 | 0.576 | 0.737 | 0.502
NCI-H1299 | 1.05 | 1.01 | 1.04 | 1.04 | 0.863 | 1.02 | 0.97 | 0.858 | 1.06 | 0.454 | 1.05 | 1.04 | 1.07 | 1.15 | 0.993 | 1.01 | 1.06 | 0.969 | 1.08 | 0.747
NCI-H2009 | 1.11 | 0.967 | 1.02 | 0.858 | 0.513 | 1.05 | 0.987 | 0.793 | 0.704 | 0.358 | 1.28 | 1.13 | 1.21 | 0.995 | 0.885 | 1.04 | 0.928 | 0.876 | 0.609 | 0.339
LOU-NH91 | 1.05 | 0.945 | 0.895 | 1.04 | 0.729 | 0.976 | 1.01 | 0.875 | 0.979 | 0.725 | 0.811 | 0.796 | 0.753 | 0.735 | 0.605 | 0.485 | 0.464 | 0.51 | 0.441 | 0.492
NCI-H2405 | 1.07 | 0.985 | 1.03 | 1.07 | 0.909 | 1.02 | 0.992 | 0.871 | 0.968 | 0.726 | 0.976 | 0.766 | 0.769 | 0.789 | 0.705 | 1.03 | 0.801 | 0.778 | 0.969 | 0.565
LCLC-97TM1 | 1.3 | 0.978 | 0.756 | 1.1 | 0.841 | 1.03 | 0.913 | 0.652 | 0.335 | 0.143 | 0.254 | 0.218 | 0.219 | 0.276 | 0.188 | 1.41 | 0.627 | 0.473 | 0.253 | 0.217
NCI-H596 | 0.986 | 0.912 | 0.939 | 1.08 | 1.03 | 1.12 | 0.954 | 0.781 | 1.06 | 0.989 | 0.456 | 0.487 | 0.43 | 0.511 | 0.512 | 1.06 | 1.1 | 0.725 | 1.23 | 0.986
NCI-H727 | 1.1 | 0.888 | 0.934 | 0.79 | 0.91 | 0.906 | 0.811 | 0.726 | 0.976 | 0.92 | 0.591 | 0.448 | 0.526 | 0.63 | 0.445 | 0.901 | 0.816 | 0.737 | 0.943 | 0.762
H3255 | 1.01 | 0.97 | 1.04 | 1.09 | 0.994 | 1.01 | 0.948 | 0.782 | 0.998 | 1.05 | 0.702 | 0.658 | 0.722 | 0.894 | 0.742 | 0.897 | 0.736 | 0.419 | 0.775 | 0.942
NCI-H1437 | 1.02 | 0.906 | 0.992 | 1.04 | 0.9 | 1.07 | 1 | 0.761 | 0.97 | 0.641 | 1.1 | 0.964 | 0.911 | 0.993 | 0.754 | 0.595 | 0.474 |  | 0.566 | 0.258
LU99A | 1.01 | 0.822 | 0.98 | 0.827 | 0.77 | 1.06 | 0.997 | 0.883 | 0.689 | 0.246 | 0.621 | 0.492 | 0.482 | 0.565 | 0.489 | 1.39 | 1.08 | 0.638 | 0.421 | 0.199
HCC-827 | 1.05 | 1.05 | 1.04 | 1.03 | 1.01 | 1.08 | 1.03 | 0.851 | 0.877 | 0.47 | 0.991 | 0.959 | 0.916 | 0.965 | 0.907 | 1.12 | 1.06 | 0.875 | 0.773 | 0.506
HCC-366 | 1.02 | 0.928 | 0.995 | 1.04 | 0.951 | 1.03 | 0.995 | 0.928 | 0.856 | 0.297 | 0.47 | 0.351 | 0.344 | 0.514 | 0.359 | 1.05 | 0.976 | 0.292 | 0.685 | 0.116
BEN | 1.03 | 0.915 | 1.05 | 1.07 | 0.845 | 0.913 | 0.788 | 0.45 | 0.378 | 0.333 | 1.1 | 0.914 | 1 | 1.13 | 0.884 | 0.938 | 0.714 | 0.345 | 0.372 | 0.265
NCI-H23 | 1.21 | 0.874 | 0.868 | 0.939 | 0.575 | 1.1 | 0.91 | 0.632 | 0.983 | 0.881 | 0.779 | 0.508 | 0.614 | 0.78 | 0.664 | 1.15 | 1.06 |  | 0.918 | 0.783
201T | 0.989 | 0.962 | 0.975 | 0.985 | 0.959 | 1.08 | 0.986 | 0.776 | 1 | 0.947 | 1 | 0.935 | 0.976 | 1 | 0.951 | 1.13 | 1.1 | 1 | 1.15 | 1.11
NCI-H460 | 1.04 | 0.96 | 0.96 | 0.999 | 0.703 | 1.07 | 1 | 0.662 | 0.498 | 0.096 | 0.613 | 0.368 | 0.443 | 0.347 | 0.0382 | 1.34 | 1.07 | 0.241 | 0.278 | 0.126
NCI-H661 | 1.03 | 0.974 | 1 | 1 | 0.955 | 1.02 | 0.958 | 0.961 | 1.06 | 1.04 | 0.516 | 0.692 | 0.427 | 0.599 | 0.65 | 0.729 | 0.824 | 0.709 | 0.716 | 0.785
HCC-15 | 1.02 | 0.935 | 0.93 | 1.02 | 0.725 | 1.11 | 0.974 | 0.752 | 0.906 | 0.497 | 0.907 | 0.812 | 0.882 | 0.861 | 0.646 | 1.19 | 1.03 | 0.723 | 0.962 | 0.456
NCI-H1563 | 0.991 | 1.01 | 0.933 | 0.972 | 0.994 | 0.966 | 0.969 | 0.951 | 1.04 | 0.998 | 0.946 | 0.863 | 0.982 | 0.897 | 0.945 | 0.826 | 1.02 | 0.874 | 1.04 | 0.928
ABC-1 | 0.949 | 0.887 | 0.92 | 1.01 | 0.761 | 0.922 | 0.724 | 0.687 | 0.641 | 0.494 | 1.18 | 0.972 | 1.12 | 1.19 | 0.829 | 0.295 | 0.248 | 0.249 | 0.275 | 0.349
LCLC-103H | 1.03 | 0.967 | 0.94 | 1.06 | 0.838 | 0.959 | 0.987 | 0.867 | 1.04 | 0.842 | 0.96 | 0.937 | 0.864 | 1.1 | 0.874 | 1.19 | 1.1 | 0.886 | 1.19 | 1.01
NCI-H441 | 1.08 | 0.922 | 0.888 | 1.1 | 1.17 | 1.26 | 0.852 | 0.502 | 0.309 | 0.272 | 0.915 | 0.675 | 0.955 | 0.572 | 0.434 | 0.355 | 0.278 | 0.352 | 0.235 | 0.245
EPLC-272H | 1.12 | 0.802 | 0.926 | 0.821 | 0.627 | 1.14 | 0.577 | 0.558 | 0.811 | 0.724 | 0.967 | 0.878 | 0.836 | 1.01 | 0.953 | 1 |  |  | 1.07 | 0.836
